Key:
H4 cells = test: MTT colorimetry, tumor cell growth/viability; type: cell-based, human; details: 1 μM, 72 hours
Method: (§1) Logarithmic growth phase cells were seeded in 96-well culture plate in appropriate density (100 μl in each well). After overnight cultivation, different concentrations of drugs were added and treated for 72 h, while three wells were set for each concentration. After treatment was completed, 20 μl/well of MTT (5 mg/ml in PBS) was added to each well and affected for 3-5 hours, the medium was suctioned out completely and 100 ul/well of DMSO was added, oscillated on decolorization shaker in dark place for 10 minutes until the Blue purple crystals formazan (formazan) was completely dissolved, the OD (Optical Density) value was detected with a microplate reader (detection wavelength: […]; reference wavelength: 650 nM). In blank group, culture medium only added without cells, and in control group, DMSO in the same volume as that for drug was added. Cell viability was calculated=(OD value of experimental group−OD value of control group)/(OD value of control group−OD value of blank group). Tumor cells from different tissue source were selected, and the concentration of Anagrelide was 1 μM and 50 μM, OD value was MTT detected after administrated for 72 hours, and the cell viability was calculated using cell viability=(administered group OD-blank group OD)/(control group OD-blank group OD)*100%, and was mapped by using GraphPadPrism 4 software. IC50 values on this seven cell lines of Anagrelide were detect by MTT method, and all of them are less than 100 nM (Table 2).

A498 cells = test: MTT colorimetry, tumor cell growth/viability; type: cell-based, human; details: for IC50: A498, MTT, 72 h
Method: as §1

Bel7404 cells = test: MTT colorimetry, tumor cell growth/viability; type: cell-based, human; details: 1 μM, 72 hours
Method: as §1

SMMC7721 cells = test: MTT colorimetry, tumor cell growth/viability; type: cell-based, human; details: 1 μM, 72 hours
Method: as §1

HeLa cells = test: MTT colorimetry, tumor cell growth/viability; type: cell-based, human; details: 1 μM, 72 hours
Method: as §1

SW1116 cells = test: MTT colorimetry, tumor cell growth/viability; type: cell-based, human; details: 1 μM, 72 hours
Method: as §1

FHCC98 cells = test: MTT colorimetry, tumor cell growth/viability; type: cell-based, human; details: 1 μM, 72 hours
Method: as §1

non-sensitive cell lines = test: Growth inhibition of non-sensitive cell lines (summary statement); type: cell-based; details: concentration raised up to 1 mM/L

SMILES: O=C1CN2Cc3c(ccc(Cl)c3Cl)N=C2N1 [Anagrelide, 6,7-dichloro-1,5-dihydro-imidazo [2,1-b] quinazolin-2 (3H)-one]
- inhibition of cell growth (H4 cells): significantly inhibited growth
- inhibition of cell growth (A498 cells; 1 μM, 72 hours, MTT, A498): significantly inhibited growth
- IC50 (A498 cells): 53 nM
- IC50 (A498 cells; Homo sapiens, A498, 72 h): < 100 nM
- inhibition of cell growth (Bel7404 cells): significantly inhibited growth
- inhibition of cell growth (SMMC7721 cells): significantly inhibited growth
- inhibition of cell growth (HeLa cells): significantly inhibited growth
- inhibition of cell growth (SW1116 cells): significantly inhibited growth
- inhibition of cell growth (FHCC98 cells): significantly inhibited growth
- growth inhibition of non-sensitive cell lines (non-sensitive cell lines): does not have any growth inhibition effect

Source: US10105362B2, “Anti-tumor use of anagrelide and derivatives thereof” (SHANGHAI INSTITUTE OF MATERIA MEDICA, CHINESE ACADEMY OF …, priority 2013, dated 2018)
